The text below walks through data of patent US10766864B2, “Morphinan derivatives for the treatment of neuropathic pain” (Nektar Therapeutics, priority 2015, dated 2020).

pIC50: −log10 of the molar value. Where two headings read alike, the source gives them in different places.

Assay [1] concerns the target mu opioid receptor (MOR) (Homo sapiens (Human), UniProt P35372). Nature of the assay: Competitive radioligand binding at MOR ([3H] Naloxone). How it is done:
(§1) Receptor Binding at MOR and NMDA.
(§2) Affinities of various compounds were measured in vitro using competitive radioligand binding assays. Serial dilutions of test compounds were incubated with membranes prepared from CHO-K1 cells expressing the mu opioid receptor (MOR; for opioid receptor binding) or rat forebrain membranes (for NMDA receptor binding). 2 nM [^3H] Naloxone (MOR) or 0.2 nM [^3H] MK801 (NMDA) were used as the specific, competitive radioligands. 10 uM Naloxone (MOR), or 10 uM MK801 (NMDA) was used to determine non-specific binding. Bound radioactivity was measured using a scintillation counter & IC50 values for test compounds were determined by non-linear regression analysis using a one-site competition model (Graph Pad Prizm). Due to each test compound being solubilized in a buffered system for the assay, the results presented herein reflect the free base activity.

Assay [2] has as its target hMOR (Homo sapiens (Human), UniProt P35372). Nature of the assay: cAMP accumulation assay (inhibition of forskolin-stimulated cAMP) in CHO-K1 cells stably expressing hMOR. Type of assay: cell-based. The procedure:
Mu opioid agonist activity for selected compounds was determined by the inhibition of forskolin-stimulated cAMP accumulation following MOR activation in CHO-K1 cells stably expressing the hMOR. […] IC50 values were calculated from […] analysis of the concentration-response curves using Graph Pad Prizm.
(In general: cAMP levels reflect the balance of adenylyl cyclase and phosphodiesterase activity.)

The target of assay [3] is NMDA receptor. Nature of the assay: Competitive radioligand binding at NMDA receptor ([3H] MK801), rat forebrain membranes. The note with it: 0.2 nM [3H] MK801, reflects free base activity. The procedure: as §1, §2
The mark [4] stands for this setting: membranes from CHO-K1 cells expressing MOR, 2 nM [3H] Naloxone, reflects free base activity, read-out: MOR IC50.
Setting [5] is: hMOR-expressing CHO-K1 cells, 10 μM forskolin, 60 minute incubation, read-out: MOR cAMP IC50.

A word on the pIC50: it is −log10 of the IC50, conventionally taken in molar units. Turning to `COCCN1CC[C@]23CC(=O)CC[C@H]2[C@H]1Cc1ccc(O)cc13` [Compound 3, 3-hydroxy-17-(2-methoxyethyl)morphinan-6-one], the pIC50 in assay [1] and in assay [2] was 8.00 to 10.00 throughout.

As to `COCCOCCOCC(=O)Nc1ccc2c(c1)[C@@]13CCCC[C@H]1[C@@H](C2)N(C)CC3` [Compound 33, 2-[2-(2-methoxyethoxy)ethoxy]-N-(17-methylmorphinan-3-yl)acetamide], the pIC50 was 6.00 to 7.00 in assay [1], under 5.00 in assay [3] and 6.00 to 7.00 in assay [2].

`COCCOCCOCCOCCOCCOCC(=O)Nc1nc2cc3c(cc2s1)C[C@@H]1[C@@H]2CCCC[C@]32CCN1C` [Compound 69]: the negative-log IC50 (pIC50) is 6.00 to 7.00 in assay [1] (setting [4]), 5.00 to 6.00 in assay [3] and 6.00 to 7.00 in assay [2] (setting [5]).

On to `COCCOCCOCCN1CC[C@]23CCCC[C@H]2[C@H]1Cc1ccc(O)cc13` [Compound 16, 17-{2-{2-(2-methoxyethoxy)ethoxy]ethyl}-morphinan-3-ol], for which the pIC50 in assay [1] (setting [4]) and in assay [2] (setting [5]) was under 6.00 in each case.

For the compound `COCCOCCN1CC[C@]23CCCC[C@H]2[C@H]1Cc1ccc(-c2ccoc2)cc13` [Compound 106, (4bR,8aR,9R)-3-(furan-3-yl)-11-(2-(2-methoxyethoxy)ethyl)-6,7,8,8a,9,10-hexahydro-5H-9,4b-(epiminoethano)phenanthrene], the pIC50 is 6.00 to 7.00 in assay [1] and under 5.00 in assay [3].

As for `COc1cccc(Nc2ccc3c(c2)[C@@]24CCCC[C@H]2[C@@H](C3)N(C)CC4)c1` [Compound 29, N-(3-methoxyphenyl)-17-methylmorphinan-3-amine], the negative logarithm of the IC50 (pIC50) in assay [1] was 8.00 to 10.00; in assay [3] it was 5.00 to 6.00.

On to `COCCOCCOCCOCCOCCNc1nc2ccc3c(c2s1)[C@@]12CCCC[C@H]1[C@@H](C3)N(C)CC2` [Compound 77, (7R,7aR,11aR)—N-(2,5,8,11,14-pentaoxahexadecan-16-yl)-14-methyl-7,7a,8,9,10,11-hexahydro-6H-7,11a-(epiminoethano)phenanthro[3,4-d]thiazol-2-amine], for which the values for the pIC50 in assay [1] (setting [4]) and in assay [3] were under 6.00 and under 5.00, respectively.

Consider `CN1CC[C@]23CCCC[C@H]2[C@H]1Cc1cc(C#N)c(N)cc13` [Compound 103, 3-amino-17-methylmorphinan-2-carbonitrile], for which the pIC50 in assay [1] (setting [4]) was under 6.00; in assay [3], under 5.00.

Take `CN1CC[C@]23CCCC[C@H]2[C@H]1Cc1cc2sc(NC(=N)N)nc2cc13` [Compound 84, 1-((4aR,5R,11bR)-14-methyl-2,3,4,4a,5,6-hexahydro-1H-5,11b-(epiminoethano)phenanthro[3,2-d]thiazol-9-yl)guanidine]: the negative-log IC50 (pIC50) is 6.00 to 7.00 in assay [1] (setting [4]) and 5.00 to 6.00 in assay [3].

In the case of `COCCN1CC[C@]23CCCC[C@H]2[C@H]1Cc1ccc(OC)cc13` [Compound 11, 3-methoxy-17-(2-methoxyethyl)-morphinan], the pIC50 is 6.00 to 7.00 in assay [1] and 5.00 to 6.00 in assay [3].

In the case of `COCCOCCN1CC[C@]23CCCC[C@H]2[C@H]1Cc1ccc(Nc2ccnnc2)cc13` [Compound 99, (4bR,8aR,9R)-11-(2-(2-methoxyethoxy)ethyl)-N-(pyridazin-4-yl)-6,7,8,8a,9,10-hexahydro-5H-9,4b-(epiminoethano)phenanthren-3-amine], the pIC50 was under 6.00 in assay [1] (setting [4]) and 5.00 to 6.00 in assay [3].

Regarding `COCCOCCOc1cncc(Nc2ccc3c(c2)[C@@]24CCCC[C@H]2[C@@H](C3)N(C)CC4)c1` [Compound 48, N-{5-[2-(2-methoxyethoxy)ethoxy]pyridin-3-yl}-17-methylmorphinan-3-amine], the pIC50 was 7.00 to 8.00 in assay [1] (setting [4]) and under 5.00 in assay [3].

As to `CN1CC[C@]23CCCC[C@H]2[C@H]1Cc1cc2sc(NC(=O)C4CCN(C(=O)OC(C)(C)C)CC4)nc2cc13` [Compound 85, tert-butyl 4-{[(4aR,5R,11bR)-14-methyl-2,3,4,4a,5,6-hexahydro-1H-5,11b-(epiminoethano)phenanthro[3,2-d][1,3]thiazol-9-yl]carbamoyl}piperidine-1-carboxylate], the pIC50 in assay [1] (setting [4]) was under 6.00; in assay [3], under 5.00.

As to `CN1CC[C@]23CCCC[C@H]2[C@H]1Cc1ccc(NS(C)(=O)=O)cc13` [Compound 37, N-(17-methylmorphinan-3-yl)methanesulfonamide], the pIC50 is 6.00 to 7.00 in assay [1] and 5.00 to 6.00 in assay [3].

Regarding `COCCOCCN1CC[C@]23CCCC[C@H]2[C@H]1Cc1ccc(Nc2ccncc2)cc13` [Compound 98, 17-[2-(2-methoxyethoxy)ethyl]-N-(pyridin-4-yl)morphinan-3-amine], the negative logarithm of the IC50 (pIC50) in assay [1] and in assay [3] was 6.00 to 7.00 in each case.

In the case of `CN1CC[C@]23CCCC[C@H]2[C@H]1Cc1ccc(Nc2ncccn2)cc13` [Compound 32, 17-methyl-N-(pyrimidin-2-yl)morphinan-3-amine], the values for the pIC50 in assay [1] (setting [4]) and in assay [3] were under 6.00 and 6.00 to 7.00, respectively.

`COCCOCCOCCO[C@@H]1CC[C@H]2[C@H]3Cc4ccc(O)cc4[C@@]2(CCN3C)C1` [Compound 47, (6β)-6-{2-[2-(2-methoxyethoxy)ethoxy]ethoxy}-17-methylmorphinan-3-ol]: the pIC50 in assay [1] and in assay [2] was 8.00 to 10.00 throughout.

Turning to `CN1CC[C@]23Cc4nc(N)sc4C[C@H]2[C@H]1Cc1ccc(O)cc13` [Compound 90, (6R,6aR,11aS)-9-amino-14-methyl-6,6a,7,11-tetrahydro-5H-6,11a-(epiminoethano)phenanthro[3,2-d]thiazol-2-ol], the pIC50 in assay [1] is 7.00 to 8.00; in assay [3], under 5.00.

For the compound `CN1CC[C@]23CCCC[C@H]2[C@H]1Cc1ccc(-c2cnc(N)nc2)cc13` [Compound 52, 5-(17-methylmorphinan-3-yl)pyrimidin-2-amine], the pIC50 in assay [1] (setting [4]) was under 6.00; in assay [3], 5.00 to 6.00.

On to `CN1CC[C@]23CCCC[C@H]2[C@H]1Cc1cc2ccc(N)nc2cc13` [Compound 101, (4aR,5R,12bR)-15-methyl-2,3,4,4a,5,6-hexahydro-1H-5,12b-(epiminoethano)naphtho[2,1-g]quinolin-10-amine], for which the pIC50 is 7.00 to 8.00 in assay [1] (setting [4]) and 5.00 to 6.00 in assay [3].

As to `COCCOCCOCCOCCOCCOc1ccc2c(c1)[C@]13CCN(C)[C@H](C2)[C@@H]1CCC(=O)C3` [Compound 8, 17-methyl-3-(2,5,8,11,14-pentaoxahexadecan-16-yloxy)morphinan-6-one], the pIC50 was under 6.00 in assay [1] (setting [4]) and under 5.00 in assay [3].

Take `CN1CC[C@]23CCCC[C@H]2[C@H]1Cc1ccc(-n2ccnc2)cc13` [Compound 62, 3-(1H-imidazol-1-yl)-17-methylmorphinan]: the pIC50 was 7.00 to 8.00 in assay [1] and 6.00 to 7.00 in assay [3].

On to `Oc1ccc2c(c1)[C@@]13CCCC[C@H]1[C@@H](C2)N(C1COC1)CC3` [Compound 87, 17-(oxetan-3-yl)morphinan-3-ol], for which the pIC50 is under 6.00 in assay [1] (setting [4]) and under 5.00 in assay [3].

For `COCCOc1c(O)ccc2c1[C@@]13CCCC[C@H]1[C@@H](C2)N(C)CC3` [Compound 22, 4-(2-methoxyethoxy)-17-methylmorphinan-3-ol], the pIC50 in assay [1] and in assay [2] was 7.00 to 8.00 throughout.

Turning to `Oc1ccc2c(c1)[C@@]13CCCC[C@H]1[C@@H](C2)N(CC1COC1)CC3` [Compound 88, 17-(oxetan-3-ylmethyl)morphinan-3-ol], the pIC50 was 7.00 to 8.00 in assay [1] and 5.00 to 6.00 in assay [3].

Consider `COCCOCCOCCO[C@H]1CCC[C@H]2[C@H]3Cc4ccc(O)cc4[C@@]12CCN3C` [Compound 75, (5α)-5-{2-[2-(2-methoxyethoxy)ethoxy]ethoxy}-17-methylmorphinan-3-ol], for which the pIC50 in assay [1] (setting [4]) is 7.00 to 8.00; in assay [3], under 5.00.

On to `COCCNC(=N)Nc1nc2cc3c(cc2s1)C[C@@H]1[C@@H]2CCCC[C@]32CCN1C` [Compound 92, 1-(2-methoxyethyl)-3-((4aR,5R,11bR)-14-methyl-2,3,4,4a,5,6-hexahydro-1H-5,11b-(epiminoethano)phenanthro[3,2-d]thiazol-9-yl)guanidine], for which the pIC50 is 6.00 to 7.00 in assay [1] (setting [4]) and under 5.00 in assay [3].

On to `CN1CC[C@]23CCCC[C@H]2[C@H]1Cc1cc2ncc(N)nc2cc13` [Compound 94, (4aR,5R,12bR)-15-methyl-2,3,4,4a,5,6-hexahydro-1H-5,12b-(epiminoethano)naphtho[1,2-g]quinoxalin-10-amine], for which the values for the pIC50 in assay [1] (setting [4]) and in assay [3] were under 6.00 and 6.00 to 7.00, respectively.

On to `COCCOc1cc2c(cc1O)[C@@]13CCCCC1[C@@H](C2)N(C)CC3` (stereo partly shown) [Compound 73, 2-(2-methoxyethoxy)-17-methylmorphinan-3-ol], for which the pIC50 in assay [1] is 6.00 to 7.00; in assay [3], 5.00 to 6.00.

For `COCCOCCOCCN1CC[C@]23CC(=O)CC[C@H]2[C@H]1Cc1ccc(OC)cc13` [Compound 4, 3-methoxy-17-{2-[2-(2-methoxyethoxy)ethoxy]ethyl}morphinan-6-one], the pIC50 is under 6.00 in assay [1] (setting [4]) and under 5.00 in assay [3].

Turning to `CN1CC[C@]23CCCC[C@H]2[C@H]1Cc1ccc(Nc2cncnc2)cc13` [Compound 53, 17-methyl-N-(pyrimidin-5-yl)morphinan-3-amine], the pIC50 is 7.00 to 8.00 in assay [1] and under 5.00 in assay [3].
